Laboratory results published in patent US20220362253A1, “NOVEL PHARMACEUTICAL FORMULATION” (GLAXOSMITHKLINE INTELLECTUAL PROPERTY DEVELOPMENT LIMITED, priority 2018, published 2022).
≈ marks a conversion by molar mass, not a printed value. Where “and” joins values, the source holds several entries; their conditions need not be identical. Equal values may be shown once.

Columns and labels:
[1] = Solubility screening up to 5 mg/mL at RT in aqueous acid media (Examples 1 to 6); type: physicochemical; conditions: free base; for solubility at 24 h: thermodynamic from solid, read-out: Drug Solubility
Method: Solubility of Compound A was conducted by adding a known quantity of drug to specific volume of aqueous media followed by 24 hour agitation at room temperature (RT).

[2] = Solubility screening up to 2 mg/mL at RT in aqueous acid media (Examples 7 to 13); type: physicochemical; conditions: target up to 2 mg/mL; for solubility at 24 h: thermodynamic from solid, read-out: Drug Solubility
[3] = Solubility in 20 mM acetic, citric and L-aspartic aqueous media as a function of pH (Example 14); type: physicochemical
[4] = Aqueous solubility with glutamic acid and glucuronic acid (Example 15); type: physicochemical; conditions: aqueous buffer, thermodynamic from solid, adjusted pH 4.1, filtered supernatant
Excerpt: Aqueous solubility of Compound A with glutamic acid and glucuronic acid were explored in Example 15.

[5] = pHmax / Ksp determination with L-aspartic acid (Example 16); type: physicochemical; conditions: for solubility: L-aspartic acid solution, thermodynamic from solid, >110 hr stirring at RT, read-out: Drug Solubility; for solubility / pH max: L-aspartic acid; for pH max: pHmax = pKa + log (S0/√Ksp)
Method: Compound A solubility was separately determined by controlling the mole ratio of L-aspartic acid relative to drug in Example 16. The concentrations of drug and counterion were measured in supernatant to calculate Ksp (Solubility product) (Table 5).

cynomolgus monkeys = assay: Injection site reactions after repeat IV bolus dosing (Example 17); type: in vivo, cynomolgus monkey; conditions: weekly IV bolus into antecubital vein then saline flush, 30 mM L-aspartic acid, 3.7% mannitol, pH approximately 3.0, non-stoichiometric hydrate form
Method: In vivo studies were conducted in cynomolgus monkeys administered IV doses of Compound A in a vehicle of 30 mM L-aspartic acid, 3.7% mannitol in Sterile Water for Injection, pH approximately 3.0. For these studies, Compound A was used in a non-stoichiometric hydrate form according to Table 6.

[6] = Stated physical properties: water solubility, hygroscopicity; type: physicochemical
Stated bioavailability = conditions: oral

Structure (SMILES): CCn1nc(C)cc1C(=O)Nc1nc2cc(C(N)=O)cc(OC)c2n1C/C=C/Cn1c(NC(=O)c2cc(C)nn2CC)nc2cc(C(N)=O)cc(OCCCN3CCOCC3)c21 [Compound A, (E)-1-(4-(5-Carbamoyl-2-(1-ethyl-3-methyl-1H-pyrazole-5-carboxamido)-7-(3-morpholinopropoxy)-1H-benzo[d]imidazol-1-yl)but-2-en-1-yl)-2-(1-ethyl-3-methyl-1H-pyrazole-5-carboxamido)-7-methoxy-1H-benzo[d]imidazole-5-carboxamide]
- Drug Solubility ([1]; 9.5 mM Lactic acid, solution pH 3.83, stirred 24 h at RT): 3.59 mg/mL
- solubility at 24 h ([1]; 9.5 mM lactic acid aqueous medium, pH 3.83, aqueous buffer, 9.5 mM Lactic acid, solution pH 3.83, stirred 24 h at RT): > 3500 µg/mL
- Drug Solubility ([1]; 50 mM Citric acid, solution pH 2.30, stirred 24 h at RT): 1.32 mg/mL
- solubility at 24 h ([1]; 50 mM citric acid aqueous medium, pH 2.3, aqueous buffer, 50 mM Citric acid, solution pH 2.30, stirred 24 h at RT): < 2000 µg/mL
- Drug Solubility ([1]; 72.8 mM Methane sulfonic acid, solution pH 1.27, stirred 24 h at RT): 3.85 mg/mL
- solubility at 24 h ([1]; 72.8 mM methane sulfonic acid aqueous medium, pH 1.27, aqueous buffer, 72.8 mM Methane sulfonic acid, solution pH 1.27, stirred 24 h at RT): > 3500 µg/mL
- Drug Solubility ([1]; 170 mM Acetic acid, solution pH 3.16, stirred 24 h at RT): 4.05 mg/mL
- solubility at 24 h ([1]; 170 mM acetic acid aqueous medium, pH 3.16, aqueous buffer, 170 mM Acetic acid, solution pH 3.16, stirred 24 h at RT): > 3500 µg/mL
- Drug Solubility ([2]; 10 mM Acetic acid, solution pH 3.33, stirred 24 h): 1.45 mg/mL
- Drug Solubility ([2]; 10 mM Methane sulfonic acid, solution pH 1.99, stirred 24 h): 1.78 mg/mL
- solubility at 24 h ([2]; 10 mM acetic acid aqueous medium, pH 3.33, aqueous buffer, 10 mM Acetic acid, solution pH 3.33, stirred 24 h): > 1000 µg/mL
- solubility at 24 h ([2]; 10 mM methane sulfonic acid aqueous medium, pH 1.99, aqueous buffer, 10 mM Methane sulfonic acid, solution pH 1.99, stirred 24 h): > 1000 µg/mL
- Drug Solubility ([2]; 25 mM Aspartic acid, solution pH 2.95, stirred 24 h): 1.80 mg/mL
- Drug Solubility ([2]; 25 mM Citric acid, solution pH 2.32, stirred 24 h): 1.81 mg/mL
- Drug Solubility ([2]; 25 mM Lactic acid, solution pH 2.57, stirred 24 h): 1.83 mg/mL
- Drug Solubility ([2]; 25 mM Tartaric acid, solution pH 2.33, stirred 24 h): 0.80 mg/mL
- solubility at 24 h ([2]; 25 mM aspartic acid aqueous medium, pH 2.95, aqueous buffer, 25 mM Aspartic acid, solution pH 2.95, stirred 24 h): > 1000 µg/mL
- solubility at 24 h ([2]; 25 mM citric acid aqueous medium, pH 2.32, aqueous buffer, 25 mM Citric acid, solution pH 2.32, stirred 24 h): > 1000 µg/mL
- solubility at 24 h ([2]; 25 mM lactic acid aqueous medium, pH 2.57, aqueous buffer, 25 mM Lactic acid, solution pH 2.57, stirred 24 h): > 1000 µg/mL
- solubility at 24 h ([2]; 25 mM tartaric acid aqueous medium, pH 2.33, aqueous buffer, 25 mM Tartaric acid, solution pH 2.33, stirred 24 h): < 1000 µg/mL
- solubility ([3]; 20 mM L-aspartic acid aqueous media, 22 °C, aqueous buffer, thermodynamic from solid, 20 mM L-aspartic acid media, pH 6.14, 22 ± 1° C., Compound A in excess, read-out: Solubility): 0.7 µg/mL (≈ 0.824 µM)
- solubility ([3]; 20 mM L-aspartic acid aqueous media, 22 °C, aqueous buffer, thermodynamic from solid, 20 mM L-aspartic acid media, pH 7.97, 22 ± 1° C., Compound A in excess, read-out: Solubility): 0.5 µg/mL (≈ 0.588 µM)
- solubility ([3]; 20 mM L-aspartic acid aqueous media, 22 °C, aqueous buffer, thermodynamic from solid, 20 mM L-aspartic acid media, pH 8.87, 22 ± 1° C., Compound A in excess, read-out: Solubility): 0.9 µg/mL (≈ 1.06 µM)
- solubility ([3]; 20 mM L-aspartic acid aqueous medium, aqueous buffer, Aspartic acid, at pH<3, read-out: Highest solubility): 4000 µg/mL (≈ 4710 µM)
- solubility ([3]; 20 mM acetic acid aqueous media, 22 °C, aqueous buffer, thermodynamic from solid, 20 mM acetic acid media, pH 6.42, 22 ± 1° C., Compound A in excess, read-out: Solubility): 0.5 µg/mL (≈ 0.588 µM)
- solubility ([3]; 20 mM acetic acid aqueous media, 22 °C, aqueous buffer, thermodynamic from solid, 20 mM acetic acid media, pH 9.84, 22 ± 1° C., Compound A in excess, read-out: Solubility): 0.5 µg/mL (≈ 0.588 µM)
- solubility ([3]; 20 mM acetic, citric or L-aspartic acid aqueous media, aqueous buffer, at pH 4.0, any of the counter ions (L-aspartic, acetic, citric acid), read-out: Solubility): ≤ 500 µg/mL
- solubility ([3]; 20 mM citric acid aqueous media, 22 °C, aqueous buffer, thermodynamic from solid, 20 mM citric acid media, pH 6.92, 22 ± 1° C., Compound A in excess, read-out: Solubility): 0.5 µg/mL (≈ 0.588 µM)
- solubility ([3]; 20 mM citric acid aqueous media, 22 °C, aqueous buffer, thermodynamic from solid, 20 mM citric acid media, pH 8.82, 22 ± 1° C., Compound A in excess, read-out: Solubility): 0.5 µg/mL (≈ 0.588 µM)
- solubility ([3]; 22 °C, aqueous buffer, thermodynamic from solid, 20 mM L-aspartic acid media, pH 3.05, 22 ± 1° C., Compound A in excess, read-out: Solubility): 5270 µg/mL (≈ 6200 µM)
- solubility ([3]; 22 °C, aqueous buffer, thermodynamic from solid, 20 mM L-aspartic acid media, pH 3.23, 22 ± 1° C., Compound A in excess, read-out: Solubility): 3970 µg/mL (≈ 4670 µM)
- solubility ([3]; 22 °C, aqueous buffer, thermodynamic from solid, 20 mM L-aspartic acid media, pH 3.76, 22 ± 1° C., Compound A in excess, read-out: Solubility): 472 µg/mL (≈ 555 µM)
- solubility ([3]; 22 °C, aqueous buffer, thermodynamic from solid, 20 mM L-aspartic acid media, pH 3.96, 22 ± 1° C., Compound A in excess, read-out: Solubility): 227 µg/mL (≈ 267 µM)
- solubility ([3]; 22 °C, aqueous buffer, thermodynamic from solid, 20 mM L-aspartic acid media, pH 4.18, 22 ± 1° C., Compound A in excess, read-out: Solubility): 68.7 µg/mL (≈ 80.8 µM)
- solubility ([3]; 22 °C, aqueous buffer, thermodynamic from solid, 20 mM L-aspartic acid media, pH 4.54, 22 ± 1° C., Compound A in excess, read-out: Solubility): 16.7 µg/mL (≈ 19.6 µM)
- solubility ([3]; 22 °C, aqueous buffer, thermodynamic from solid, 20 mM L-aspartic acid media, pH 4.93, 22 ± 1° C., Compound A in excess, read-out: Solubility): 5 µg/mL (≈ 5.88 µM)
- solubility ([3]; 22 °C, aqueous buffer, thermodynamic from solid, 20 mM acetic acid media, pH 3.26, 22 ± 1° C., Compound A in excess, read-out: Solubility): 1760 µg/mL (≈ 2070 µM)
- solubility ([3]; 22 °C, aqueous buffer, thermodynamic from solid, 20 mM acetic acid media, pH 3.58, 22 ± 1° C., Compound A in excess, read-out: Solubility): 1090 µg/mL (≈ 1280 µM)
- solubility ([3]; 22 °C, aqueous buffer, thermodynamic from solid, 20 mM acetic acid media, pH 3.71, 22 ± 1° C., Compound A in excess, read-out: Solubility): 810 µg/mL (≈ 953 µM)
- solubility ([3]; 22 °C, aqueous buffer, thermodynamic from solid, 20 mM acetic acid media, pH 3.91, 22 ± 1° C., Compound A in excess, read-out: Solubility): 396 µg/mL (≈ 466 µM)
- solubility ([3]; 22 °C, aqueous buffer, thermodynamic from solid, 20 mM acetic acid media, pH 4.09, 22 ± 1° C., Compound A in excess, read-out: Solubility): 269 µg/mL (≈ 316 µM)
- solubility ([3]; 22 °C, aqueous buffer, thermodynamic from solid, 20 mM acetic acid media, pH 4.64, 22 ± 1° C., Compound A in excess, read-out: Solubility): 24.1 µg/mL (≈ 28.4 µM)
- solubility ([3]; 22 °C, aqueous buffer, thermodynamic from solid, 20 mM acetic acid media, pH 4.85, 22 ± 1° C., Compound A in excess, read-out: Solubility): 10.8 µg/mL (≈ 12.7 µM)
- solubility ([3]; 22 °C, aqueous buffer, thermodynamic from solid, 20 mM acetic acid media, pH 5.48, 22 ± 1° C., Compound A in excess, read-out: Solubility): 2.9 µg/mL (≈ 3.41 µM)
- solubility ([3]; 22 °C, aqueous buffer, thermodynamic from solid, 20 mM citric acid media, pH 2.47, 22 ± 1° C., Compound A in excess, read-out: Solubility): 456 µg/mL (≈ 536 µM)
- solubility ([3]; 22 °C, aqueous buffer, thermodynamic from solid, 20 mM citric acid media, pH 2.61, 22 ± 1° C., Compound A in excess, read-out: Solubility): 195 µg/mL (≈ 229 µM)
- solubility ([3]; 22 °C, aqueous buffer, thermodynamic from solid, 20 mM citric acid media, pH 2.74, 22 ± 1° C., Compound A in excess, read-out: Solubility): 81.6 µg/mL (≈ 96 µM)
- solubility ([3]; 22 °C, aqueous buffer, thermodynamic from solid, 20 mM citric acid media, pH 3.98, 22 ± 1° C., Compound A in excess, read-out: Solubility): 5.4 µg/mL (≈ 6.35 µM)
- solubility ([3]; 22 °C, aqueous buffer, thermodynamic from solid, 20 mM citric acid media, pH 4.94, 22 ± 1° C., Compound A in excess, read-out: Solubility): 4 µg/mL (≈ 4.71 µM)
- solubility ([3]; 22 °C, aqueous buffer, thermodynamic from solid, 20 mM citric acid media, pH 5.91, 22 ± 1° C., Compound A in excess, read-out: Solubility): 1.3 µg/mL (≈ 1.53 µM)
- solubility ([3]; 22 °C, pH 2.9, aqueous buffer, thermodynamic from solid, 20 mM citric acid media, pH 2.90, 22 ± 1° C., Compound A in excess, read-out: Solubility): 41.5 µg/mL (≈ 48.8 µM)
- solubility ([3]; 22 °C, pH 3.4, aqueous buffer, thermodynamic from solid, 20 mM citric acid media, pH 3.40, 22 ± 1° C., Compound A in excess, read-out: Solubility): 8.3 µg/mL (≈ 9.77 µM)
- solubility ([4]; aqueous glucuronic acid (1 mol eq), Glucuronic acid (1 mol eq)): 9000 µg/mL (≈ 10600 µM)
- solubility ([4]; aqueous glutamic acid (1 mol eq), Glutamic acid (1 mol eq)): 4500 µg/mL (≈ 5290 µM)
- solubility ([5]; counterion conc. 8.45 mM): 4070 µg/mL and 4790 µM
- solubility ([5]; counterion conc. 8.70 mM): 3950 µg/mL and 4640 µM
- solubility ([5]; counterion conc. 9.18 mM): 3940 µg/mL and 4640 µM
- solubility ([5]; counterion conc. 9.33 mM): 4140 µg/mL and 4880 µM
- pH max ([5]; counterion conc. 8.45 mM): 3.57
- pH max ([5]; counterion conc. 8.70 mM): 3.57
- pH max ([5]; counterion conc. 9.18 mM): 3.56
- pH max ([5]; counterion conc. 9.33 mM): 3.54
- pHmax ([5]; in L-aspartic acid media, from the Ksp measurements in Table 5): 3.5-3.6
- pKa ([5]; value used for the pHmax calculation, read-out: pKa of drug): 7
- Injection site reactions (cynomolgus monkeys): no Compound A-related injection site reactions were observed
- solubility [6]: < 10 µg/mL
- bioavailability (Stated bioavailability): poor oral bioavailability
